# Test results as given in PubChem BioAssay (NCI).
#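 Results reflect a 48-hour exposure of cells in 96-well plates to compound at five concentrations. TGI marks complete inhibition of growth.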
# Columns and labels:
# Experiment in all cases: DTP human tumour cell line panel, 48 h
# LXFL 529 NSCLC = system: LXFL 529 NSCLC
# K-562 leukemia = system: K-562 leukemia
# NCI-H460 lung = system: NCI-H460 lung
# KM12 colon = system: KM12 colon
# MOLT-4 leukemia = system: MOLT-4 leukemia
# SK-MEL-28 melanoma = system: SK-MEL-28 melanoma
# KM20L2 colon = system: KM20L2 colon
# SN12C renal = system: SN12C renal
# HL-60(TB) leukemia = system: HL-60(TB) leukemia
# M19-MEL melanoma = system: M19-MEL melanoma
# SF-268 CNS = system: SF-268 CNS
# UO-31 renal = system: UO-31 renal
# MALME-3M melanoma = system: MALME-3M melanoma
# OVCAR-8 ovarian = system: OVCAR-8 ovarian
# HT29 colon = system: HT29 colon
# NCI-H226 lung = system: NCI-H226 lung
# HCC-2998 colon = system: HCC-2998 colon
# EKVX NSCLC = system: EKVX NSCLC
# SF-295 CNS = system: SF-295 CNS
# SW-620 colon = system: SW-620 colon
# UACC-62 melanoma = system: UACC-62 melanoma
# DMS 114 small cell lung = system: DMS 114 small cell lung
# M14 melanoma = system: M14 melanoma
# SK-OV-3 ovarian = system: SK-OV-3 ovarian
# SNB-19 CNS = system: SNB-19 CNS
# OVCAR-4 ovarian = system: OVCAR-4 ovarian
# SK-MEL-2 melanoma = system: SK-MEL-2 melanoma
# RXF 393 renal = system: RXF 393 renal
# RPMI-8226 leukemia = system: RPMI-8226 leukemia
# U251 CNS = system: U251 CNS
# XF 498 CNS = system: XF 498 CNS
# NCI-H522 lung = system: NCI-H522 lung
# OVCAR-5 ovarian = system: OVCAR-5 ovarian
# HCT-15 colon = system: HCT-15 colon
# CCRF-CEM leukemia = system: CCRF-CEM leukemia
# CAKI-1 renal = system: CAKI-1 renal
# ACHN renal = system: ACHN renal
# TK-10 renal = system: TK-10 renal
# HCT-116 colon = system: HCT-116 colon
# SNB-75 CNS = system: SNB-75 CNS
# HOP-18 NSCLC = system: HOP-18 NSCLC
# UACC-257 melanoma = system: UACC-257 melanoma
# SR leukemia = system: SR leukemia
# IGROV1 ovarian = system: IGROV1 ovarian
# SNB-78 CNS = system: SNB-78 CNS
# COLO 205 colon = system: COLO 205 colon
# OVCAR-3 ovarian = system: OVCAR-3 ovarian
# A549 NSCLC = system: A549 NSCLC
# 786-0 renal = system: 786-0 renal
# HOP-62 NSCLC = system: HOP-62 NSCLC
# SK-MEL-5 melanoma = system: SK-MEL-5 melanoma
# NCI-H23 lung = system: NCI-H23 lung
# DLD-1 colon = system: DLD-1 colon
# HOP-92 NSCLC = system: HOP-92 NSCLC
# A498 renal = system: A498 renal
# LOX IMVI melanoma = system: LOX IMVI melanoma
# DMS 273 small cell lung = system: DMS 273 small cell lung
# RXF-631 renal = system: RXF-631 renal
# SF-539 CNS = system: SF-539 CNS
compound,measurement,setting,value
O=C(Cc1ccccc1)NN1C(=O)C(Cl)C1c1ccccc1 (stereo unspecified),TGI,LXFL 529 NSCLC,50.5 µM
same,TGI,K-562 leukemia,> 100 µM
same,TGI,NCI-H460 lung,> 100 µM
same,TGI,KM12 colon,> 100 µM
same,TGI,MOLT-4 leukemia,81.8 µM
same,TGI,SK-MEL-28 melanoma,> 100 µM
same,TGI,KM20L2 colon,> 100 µM
same,TGI,SN12C renal,> 100 µM
same,TGI,HL-60(TB) leukemia,> 100 µM
same,TGI,M19-MEL melanoma,> 100 µM
same,TGI,SF-268 CNS,> 100 µM
same,TGI,UO-31 renal,> 100 µM
same,TGI,MALME-3M melanoma,> 100 µM
same,TGI,OVCAR-8 ovarian,> 100 µM
same,TGI,HT29 colon,> 100 µM
same,TGI,NCI-H226 lung,> 100 µM
same,TGI,HCC-2998 colon,> 100 µM
same,TGI,EKVX NSCLC,> 100 µM
same,TGI,SF-295 CNS,> 100 µM
same,TGI,SW-620 colon,> 100 µM
same,TGI,UACC-62 melanoma,> 100 µM
same,TGI,DMS 114 small cell lung,> 100 µM
same,TGI,M14 melanoma,> 100 µM
same,TGI,SK-OV-3 ovarian,> 100 µM
same,TGI,SNB-19 CNS,> 100 µM
same,TGI,OVCAR-4 ovarian,> 100 µM
same,TGI,SK-MEL-2 melanoma,> 100 µM
same,TGI,RXF 393 renal,> 100 µM
same,TGI,RPMI-8226 leukemia,52.8 µM
same,TGI,U251 CNS,> 100 µM
same,TGI,XF 498 CNS,45.2 µM
same,TGI,NCI-H522 lung,3.93 µM
same,TGI,OVCAR-5 ovarian,> 100 µM
same,TGI,HCT-15 colon,> 100 µM
same,TGI,CCRF-CEM leukemia,71.4 µM
same,TGI,CAKI-1 renal,> 100 µM
same,TGI,ACHN renal,> 100 µM
same,TGI,TK-10 renal,> 100 µM
same,TGI,HCT-116 colon,> 100 µM
same,TGI,SNB-75 CNS,> 100 µM
same,TGI,HOP-18 NSCLC,> 100 µM
same,TGI,UACC-257 melanoma,> 100 µM
same,TGI,SR leukemia,55.3 µM
same,TGI,IGROV1 ovarian,> 100 µM
same,TGI,SNB-78 CNS,> 100 µM
same,TGI,COLO 205 colon,> 100 µM
same,TGI,OVCAR-3 ovarian,> 100 µM
same,TGI,A549 NSCLC,> 100 µM
same,TGI,786-0 renal,> 100 µM
same,TGI,HOP-62 NSCLC,> 100 µM
same,TGI,SK-MEL-5 melanoma,> 100 µM
same,TGI,NCI-H23 lung,> 100 µM
same,TGI,DLD-1 colon,> 100 µM
COC(=O)C1CCC(N2C(=O)CCC2C(=O)OC)=N1 (stereo unspecified),TGI,LXFL 529 NSCLC,> 100 µM
same,TGI,K-562 leukemia,> 100 µM
same,TGI,NCI-H460 lung,> 100 µM
same,TGI,HOP-92 NSCLC,> 100 µM
same,TGI,KM12 colon,> 100 µM
same,TGI,MOLT-4 leukemia,> 100 µM
same,TGI,SK-MEL-28 melanoma,> 100 µM
same,TGI,KM20L2 colon,> 100 µM
same,TGI,SN12C renal,> 100 µM
same,TGI,HL-60(TB) leukemia,> 100 µM
same,TGI,M19-MEL melanoma,> 100 µM
same,TGI,SF-268 CNS,> 100 µM
same,TGI,UO-31 renal,> 100 µM
same,TGI,MALME-3M melanoma,> 100 µM
same,TGI,A498 renal,> 100 µM
same,TGI,OVCAR-8 ovarian,> 100 µM
same,TGI,HT29 colon,> 100 µM
same,TGI,NCI-H226 lung,> 100 µM
same,TGI,HCC-2998 colon,> 100 µM
same,TGI,EKVX NSCLC,> 100 µM
same,TGI,SF-295 CNS,> 100 µM
same,TGI,SW-620 colon,> 100 µM
same,TGI,UACC-62 melanoma,> 100 µM
same,TGI,M14 melanoma,> 100 µM
same,TGI,SK-OV-3 ovarian,> 100 µM
same,TGI,SNB-19 CNS,> 100 µM
same,TGI,OVCAR-4 ovarian,> 100 µM
same,TGI,SK-MEL-2 melanoma,> 100 µM
same,TGI,RPMI-8226 leukemia,> 100 µM
same,TGI,LOX IMVI melanoma,> 100 µM
same,TGI,DMS 273 small cell lung,> 100 µM
same,TGI,U251 CNS,> 100 µM
same,TGI,XF 498 CNS,> 100 µM
same,TGI,NCI-H522 lung,> 100 µM
same,TGI,OVCAR-5 ovarian,> 100 µM
same,TGI,HCT-15 colon,> 100 µM
same,TGI,CCRF-CEM leukemia,> 100 µM
same,TGI,CAKI-1 renal,> 100 µM
same,TGI,ACHN renal,> 100 µM
same,TGI,TK-10 renal,> 100 µM
same,TGI,HCT-116 colon,> 100 µM
same,TGI,SNB-75 CNS,> 100 µM
same,TGI,HOP-18 NSCLC,> 100 µM
same,TGI,UACC-257 melanoma,> 100 µM
same,TGI,IGROV1 ovarian,> 100 µM
same,TGI,SNB-78 CNS,> 100 µM
same,TGI,COLO 205 colon,> 100 µM
same,TGI,OVCAR-3 ovarian,> 100 µM
same,TGI,RXF-631 renal,> 100 µM
same,TGI,A549 NSCLC,> 100 µM
same,TGI,786-0 renal,> 100 µM
same,TGI,HOP-62 NSCLC,> 100 µM
same,TGI,NCI-H23 lung,> 100 µM
same,TGI,DLD-1 colon,> 100 µM
CCCCCCCCCCCCOC(=S)NC,TGI,LXFL 529 NSCLC,31.4 µM
same,TGI,K-562 leukemia,45.9 µM
same,TGI,NCI-H460 lung,34 µM
same,TGI,HOP-92 NSCLC,31.5 µM
same,TGI,KM12 colon,27.8 µM
same,TGI,MOLT-4 leukemia,32.1 µM
same,TGI,SK-MEL-28 melanoma,44 µM
same,TGI,KM20L2 colon,33.9 µM
same,TGI,SN12C renal,31.7 µM
same,TGI,HL-60(TB) leukemia,> 100 µM
same,TGI,SF-268 CNS,36 µM
same,TGI,UO-31 renal,43.7 µM
same,TGI,MALME-3M melanoma,39.6 µM
same,TGI,A498 renal,41.5 µM
same,TGI,OVCAR-8 ovarian,32.9 µM
same,TGI,HT29 colon,33.1 µM
same,TGI,NCI-H226 lung,15.2 µM
same,TGI,HCC-2998 colon,32 µM
same,TGI,EKVX NSCLC,36.7 µM
same,TGI,SF-295 CNS,43.9 µM
same,TGI,SW-620 colon,32.6 µM
same,TGI,UACC-62 melanoma,31 µM
same,TGI,DMS 114 small cell lung,37.5 µM
same,TGI,M14 melanoma,37.1 µM
same,TGI,SK-OV-3 ovarian,58 µM
same,TGI,SNB-19 CNS,> 100 µM
same,TGI,OVCAR-4 ovarian,56 µM
same,TGI,SK-MEL-2 melanoma,28.1 µM
same,TGI,RXF 393 renal,32.5 µM
same,TGI,RPMI-8226 leukemia,36.1 µM
same,TGI,LOX IMVI melanoma,27.4 µM
same,TGI,DMS 273 small cell lung,34.4 µM
same,TGI,U251 CNS,32.8 µM
same,TGI,XF 498 CNS,35.7 µM
same,TGI,NCI-H522 lung,58 µM
same,TGI,OVCAR-5 ovarian,25.3 µM
same,TGI,HCT-15 colon,32.5 µM
same,TGI,CCRF-CEM leukemia,> 100 µM
same,TGI,ACHN renal,35.2 µM
same,TGI,TK-10 renal,25.4 µM
same,TGI,HCT-116 colon,30.8 µM
same,TGI,SNB-75 CNS,74.6 µM
same,TGI,HOP-18 NSCLC,50.1 µM
same,TGI,UACC-257 melanoma,42.2 µM
same,TGI,SR leukemia,34.6 µM
same,TGI,SF-539 CNS,33.5 µM
same,TGI,IGROV1 ovarian,38.9 µM
same,TGI,SNB-78 CNS,61.8 µM
same,TGI,786-0 renal,34.2 µM
same,TGI,HOP-62 NSCLC,37.3 µM
same,TGI,NCI-H23 lung,40.9 µM
same,TGI,DLD-1 colon,34.3 µM
CCCCCC/C=C/CCCCCCCc1cccc(O)c1C(=O)O,TGI,LXFL 529 NSCLC,> 100 µM
same,TGI,K-562 leukemia,> 100 µM
same,TGI,NCI-H460 lung,> 100 µM
same,TGI,KM12 colon,> 100 µM
same,TGI,MOLT-4 leukemia,> 100 µM
same,TGI,SK-MEL-28 melanoma,> 100 µM
same,TGI,KM20L2 colon,> 100 µM
same,TGI,HL-60(TB) leukemia,> 100 µM
same,TGI,M19-MEL melanoma,> 100 µM
same,TGI,SF-268 CNS,> 100 µM
same,TGI,UO-31 renal,> 100 µM
same,TGI,MALME-3M melanoma,> 100 µM
same,TGI,OVCAR-8 ovarian,> 100 µM
same,TGI,HT29 colon,> 100 µM
same,TGI,EKVX NSCLC,> 100 µM
same,TGI,SF-295 CNS,> 100 µM
same,TGI,SW-620 colon,> 100 µM
same,TGI,UACC-62 melanoma,> 100 µM
same,TGI,DMS 114 small cell lung,> 100 µM
same,TGI,M14 melanoma,> 100 µM
same,TGI,SK-OV-3 ovarian,99.8 µM
same,TGI,SNB-19 CNS,> 100 µM
same,TGI,OVCAR-4 ovarian,> 100 µM
same,TGI,SK-MEL-2 melanoma,> 100 µM
same,TGI,RPMI-8226 leukemia,> 100 µM
same,TGI,LOX IMVI melanoma,> 100 µM
same,TGI,DMS 273 small cell lung,> 100 µM
same,TGI,U251 CNS,88.2 µM
same,TGI,XF 498 CNS,> 100 µM
same,TGI,NCI-H522 lung,> 100 µM
same,TGI,OVCAR-5 ovarian,> 100 µM
same,TGI,HCT-15 colon,> 100 µM
same,TGI,CCRF-CEM leukemia,> 100 µM
same,TGI,CAKI-1 renal,> 100 µM
same,TGI,ACHN renal,> 100 µM
same,TGI,TK-10 renal,> 100 µM
same,TGI,HCT-116 colon,> 100 µM
same,TGI,SNB-75 CNS,> 100 µM
same,TGI,HOP-18 NSCLC,> 100 µM
same,TGI,UACC-257 melanoma,> 100 µM
same,TGI,SR leukemia,> 100 µM
same,TGI,SF-539 CNS,> 100 µM
same,TGI,IGROV1 ovarian,> 100 µM
same,TGI,SNB-78 CNS,> 100 µM
same,TGI,COLO 205 colon,> 100 µM
same,TGI,OVCAR-3 ovarian,> 100 µM
same,TGI,RXF-631 renal,> 100 µM
same,TGI,A549 NSCLC,> 100 µM
same,TGI,786-0 renal,> 100 µM
same,TGI,HOP-62 NSCLC,> 100 µM
same,TGI,NCI-H23 lung,> 100 µM
same,TGI,DLD-1 colon,> 100 µM
